{"source": "patent US20090131528A1", "about": "“SALT” (priority 2006, published 2009)", "key": {"physchem": {"test": "physchem", "from_the_text": "The active ingredient aliskiren is the free base which is described specifically in EP 678503 A and it has one basic group, the amino group in position 5. […] Accordingly, one acidic group can bind to the nitrogen lone pairs of the amino group."}, "[1]": {"test": "Hygroscopicity, general statement", "format": "physicochemical"}, "[2]": {"test": "1-Week Chemical Stability Test, total impurities by HPLC-UV 230 nm", "format": "physicochemical", "from_the_text": "(§1) The exceptional stability of the nitrate salt of aliskiren towards water may also be shown in stability tests."}, "[3]": {"test": "Dynamic vapour sorption (DVS-1), isothermal water absorption or loss", "format": "physicochemical", "conditions": "for Change in Mass (%) Desorption / Change in Mass (%) Sorption: 25° C., 2 hours after equilibration", "from_the_text": "A clear characterisation of this property is achieved by means of isothermal measurements over predetermined time intervals and predetermined relative humidity using dynamic vapour sorption (DVS-1 from the company Surface Measurement Systems LTD, Marlow, Buckinghamshire, UK). […] The measurement error of this sorption method based on thermogravimetry is about 0.1%."}, "[4]": {"test": "Stability test towards water, water content on storage", "format": "physicochemical", "conditions": "open container and sealed ampoule, four weeks at 40° C. and 75% relative humidity", "from_the_text": "as §1"}}, "note": "Structures can show the parent of a compound that is named as a salt.", "data": [{"smiles": "COCCCOc1cc(C[C@@H](C[C@H](N)[C@@H](O)C[C@H](C(=O)NCC(C)(C)C(N)=O)C(C)C)C(C)C)ccc1OC", "note": "[aliskiren, 2(S),4(S),5(S),7(S)—N-(3-amino-2,2-dimethyl-3-oxopropyl)-2,7-di(1-methylethyl)-4-hydroxy-5-amino-8-[4-methoxy-3-(3-methoxy-propoxy)phenyl]-octanamide]", "values": [{"measurement": "pKa", "setting": "physchem", "value": 9.79}, {"measurement": "hygroscopicity", "setting": "[1]", "value": "highly hygroscopic"}]}, {"smiles": "COCCCOc1cc(C[C@@H](C[C@H](N)[C@@H](O)C[C@H](C(=O)NCC(C)(C)C(N)=O)C(C)C)C(C)C)ccc1OC", "note": "[nitrate salt of aliskiren]", "values": [{"measurement": "Total Impurities (HPLC-UV, 230 nm), %", "setting": "[2]; 1 week, 50 C. sealed, listed as Nitrate", "value": 1.0, "unit": "%"}, {"measurement": "Total Impurities (HPLC-UV, 230 nm), %", "setting": "[2]; 1 week, 50 C./75% RH, listed as Nitrate", "value": 1.0, "unit": "%"}, {"measurement": "Total Impurities (HPLC-UV, 230 nm), %", "setting": "[2]; 1 week, 80 C. sealed, listed as Nitrate", "value": 1.0, "unit": "%"}, {"measurement": "Total Impurities (HPLC-UV, 230 nm), %", "setting": "[2]; 1 week, 80 C./75% RH, listed as Nitrate", "value": 1.1, "unit": "%"}, {"measurement": "water absorption or loss", "setting": "[3]; DVS conditions employed, measurement error about 0.1%", "value": "no measurable water absorption or loss"}, {"measurement": "hygroscopicity", "setting": "[3]; DVS, up to 95% RH", "value": "non-hygroscopic"}, {"measurement": "moisture uptake", "setting": "[3]; at 95% RH", "value": 0.3, "unit": "%"}, {"measurement": "Change in Mass (%) Desorption", "setting": "[3]; relative humidity 0%", "value": "−0.0060", "unit": "%"}, {"measurement": "Change in Mass (%) Sorption", "setting": "[3]; relative humidity 0%, 39.4 mg sample", "value": 0.0001, "unit": "%"}, {"measurement": "Change in Mass (%) Desorption", "setting": "[3]; relative humidity 25%", "value": 0.0326, "unit": "%"}, {"measurement": "Change in Mass (%) Sorption", "setting": "[3]; relative humidity 25%", "value": 0.0269, "unit": "%"}, {"measurement": "Change in Mass (%) Desorption", "setting": "[3]; relative humidity 50%", "value": 0.0842, "unit": "%"}, {"measurement": "Change in Mass (%) Sorption", "setting": "[3]; relative humidity 50%", "value": 0.0821, "unit": "%"}, {"measurement": "Change in Mass (%) Desorption", "setting": "[3]; relative humidity 75%", "value": 0.1495, "unit": "%"}, {"measurement": "Change in Mass (%) Sorption", "setting": "[3]; relative humidity 75%", "value": 0.1425, "unit": "%"}, {"measurement": "Change in Mass (%) Desorption", "setting": "[3]; relative humidity 85%", "value": 0.1938, "unit": "%"}, {"measurement": "Change in Mass (%) Sorption", "setting": "[3]; relative humidity 85%", "value": 0.1864, "unit": "%"}, {"measurement": "Change in Mass (%) Desorption", "setting": "[3]; relative humidity 95%", "value": 0.3091, "unit": "%"}, {"measurement": "Change in Mass (%) Sorption", "setting": "[3]; relative humidity 95%", "value": 0.3091, "unit": "%"}, {"measurement": "water content", "setting": "[4]", "value": "remains constant"}]}, {"smiles": "COCCCOc1cc(C[C@@H](C[C@H](N)[C@@H](O)C[C@H](C(=O)NCC(C)(C)C(N)=O)C(C)C)C(C)C)ccc1OC", "note": "[HemiFumarate]", "values": [{"measurement": "Total Impurities (HPLC-UV, 230 nm), %", "setting": "[2]; 1 week, 50 C. sealed", "value": 1.1, "unit": "%"}, {"measurement": "Total Impurities (HPLC-UV, 230 nm), %", "setting": "[2]; 1 week, 50 C./75% RH", "value": 9.3, "unit": "%"}, {"measurement": "Total Impurities (HPLC-UV, 230 nm), %", "setting": "[2]; 1 week, 80 C. sealed", "value": 18.1, "unit": "%"}, {"measurement": "Total Impurities (HPLC-UV, 230 nm), %", "setting": "[2]; 1 week, 80 C./75% RH", "value": 64.3, "unit": "%"}, {"measurement": "Total Impurities (HPLC-UV, 230 nm), %", "setting": "[2]; Unstressed", "value": 1.1, "unit": "%"}]}]}
